From US5952354A, “Tris carbamic acid esters: inhibitors of cholesterol absorption” (priority 1993, dated 1999) come the findings set out here.

For orientation: IC50 means the concentration that inhibits the measured activity by half.

Test [1] concerns acyl-coenzyme A: cholesterol acyltransferase (ACAT). The experiment in a line: inhibition of acyl-coenzyme A: cholesterol acyltransferase (intracellular cholesterol esterification, procedure of Ross et al.). Type of test: cell-based. The conditions noted are these: for IC50: read-out: ACAT IC50. The method, then:
1. The ability of the compounds of this invention to inhibit acyl-coenzyme A: cholesterol acyltransferase was established by initially showing that they inhibited intracellular cholesterol esterification by subjecting them to the standard experimental test procedure of Ross et al., J. Biol. Chem. 259, 814 (1984). The results are reported in the following table, where available, in terms of the percent inhibition at 25 μM and the IC50 (μM).

The target in test [2] is T1, cholesterol esterase (EC 3.1.1.13) (CEH) (Bos taurus, UniProt P30122).
T1 construct: purchased Sigma Company, St. Louis, Mo., U.S.A. C-1892; host or cells: bovine pancreas
T1 sequence (P30122 19-597): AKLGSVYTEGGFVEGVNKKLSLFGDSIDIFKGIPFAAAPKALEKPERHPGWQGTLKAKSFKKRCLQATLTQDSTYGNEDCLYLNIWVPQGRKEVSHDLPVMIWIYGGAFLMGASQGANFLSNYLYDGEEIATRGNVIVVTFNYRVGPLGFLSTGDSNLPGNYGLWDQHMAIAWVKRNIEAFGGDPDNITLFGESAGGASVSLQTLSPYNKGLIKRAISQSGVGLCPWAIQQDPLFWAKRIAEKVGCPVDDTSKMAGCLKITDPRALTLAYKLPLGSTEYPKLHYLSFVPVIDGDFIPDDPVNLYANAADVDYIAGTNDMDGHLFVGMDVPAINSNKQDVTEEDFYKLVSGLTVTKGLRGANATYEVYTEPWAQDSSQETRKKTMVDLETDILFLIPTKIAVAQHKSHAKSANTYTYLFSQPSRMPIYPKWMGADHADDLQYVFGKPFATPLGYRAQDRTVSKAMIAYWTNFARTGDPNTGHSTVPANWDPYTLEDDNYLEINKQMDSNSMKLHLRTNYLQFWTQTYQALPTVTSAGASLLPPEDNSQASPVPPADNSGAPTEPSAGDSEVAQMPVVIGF
The experiment in a line: inhibition of cholesteryl ester formation by cholesterol esterase (CEH), procedure of Field. Format: biochemical, bovine. The method, then:
2. The ability of the compounds of this invention to inhibit the formation of cholesteryl esters and thereby interfere with and prevent assimilation of cholesterol into the lymphatic system and ultimately the blood stream was established by incubating the compounds at 37C. with a mixture of cholesterol and oleic acid in the presence of buffered cholesterol esterase [(EC 3.1.1.13) Sigma Company, St. Louis, Mo., U.S.A., No. C-1892, from bovine pancreas] and measuring the amount of ester formed, according to the procedure of Field. J. of Lipid Research, 25, 389 (1984).

Test [3] has as its system absorption of 14C-cholesterol. Kind of test: in vivo cholesterol absorption studies in normal rats ([4-14C] cholesterol). The conditions noted are these: Rattus norvegicus, read-out: Effect on Absorption of 14C-chol. - 6 hr - normal, % Decrease; for inhibition in vivo at 10 mg/kg: 10 mg/kg oral; for inhibition in vivo at 3 mg/kg: 3 mg/kg oral. The method, then:
The in vivo cholesterol absorption studies were conducted in normal rats by oral administration of the compound being tested in propylene glycol and olive oil followed by oral administration of [4-^14 C] cholesterol in propylene glycol and olive oil, otherwise following the procedure of Cayen et al., J. Lipid Res. 20 162 (1979). The serum radioactivity was measured at six hours after dosing. The results of this study are reported in the following table as percent decrease compared to control at the dose stated.

Setting [4] is: 37C, cholesterol and oleic acid, buffered cholesterol esterase from bovine pancreas, read-out: CEH IC50.
Where [5] appears, read: 20 mg/kg oral, normal rats, serum radioactivity at 6 hr, vs control.
Where [6] appears, read: normal rats, serum radioactivity at 6 hr, vs control.

Where two headings read alike, the source gives them in different places. Some results are limits rather than exact numbers.

For `CCCCCCCC/C=C\CCCCCCCCNC(=O)OCCCCCCNC(=O)OC1CCN(C(=O)Oc2ccc(Oc3ccccc3)cc2)CC1` [Example 13], the “ACAT % inhibition at 25 μM” value in test [1] was 47%. In test [2] (setting [4]), the IC50 turned out to be 15500 nM. Also, the inhibition in vivo at 20 mg/kg in test [3] (setting [5]) came out at 20%.

`CCCCCCCC/C=C\CCCCCCCCNC(=O)OCCCCCCCCCCCCNC(=O)OC1CCN(C(=O)Oc2ccc(Oc3ccccc3)cc2)CC1` [Example 14, (Z)-4-[12-(Octadec-9-enylcarbamoyloxy)-dodecylcarbamoyloxy]-piperidine-1-carboxylic acid 4-phenoxyphenyl ester]: the “ACAT % inhibition at 25 μM” value in test [1] is 41%. In test [2] (setting [4]), the concentration for half-maximal inhibition (IC50) was > 100000 nM. In addition, the inhibition in vivo at 20 mg/kg in test [3] (setting [5]) turned out to be 2%.

With `O=C(NCCCCCCOC(=O)N(Cc1ccccc1)Cc1ccccc1)OC1CCN(C(=O)Oc2ccc(Oc3ccccc3)cc2)CC1` [Example 9], in test [1], the “ACAT % inhibition at 25 μM” value turned out to be 95% and the IC50 was found to be 1590 nM. Moreover, in test [2] (setting [4]), the IC50 was 80 nM. In addition, the inhibition in vivo at 10 mg/kg in test [3] (setting [6]) worked out at 49%.

For the compound `CCCCCCNC(=O)OCCCCCCCCCCCCNC(=O)OC1CCN(C(=O)Oc2ccc(Oc3ccccc3)cc2)CC1` [Example 10, 4-[12-(Hexylcarbamoyloxy)-dodecylcarbamoyloxy]-piperidine-1-carboxylic acid 4-phenxoyphenyl ester], in test [1], the “ACAT % inhibition at 25 μM” value was 83% and the IC50 is 5000 nM. The compound also came in with a concentration for half-maximal inhibition (IC50) in test [2] of 620 nM. In addition, in test [3] (po, 6 h), the inhibition in vivo at 20 mg/kg was found to be 22%.

As for `CCCCCCN(CCCCCC)C(=O)OCCCCCCNC(=O)OC1CCN(C(=O)Oc2ccc(Oc3ccccc3)cc2)CC1` [Example 7], in test [1], the “ACAT % inhibition at 25 μM” value came out at 76%. In addition, the results for the IC50 in test [1] and in test [2] (setting [4]) were 6410 nM and 670 nM, respectively. Besides, the inhibition in vivo at 20 mg/kg in test [3] (setting [5]) came out at 42%.

On to `O=C(NCCCCCCOC(=O)N1CCC2(CCCC2)CC1)OC1CCN(C(=O)Oc2ccc(Oc3ccccc3)cc2)CC1` [Example 12, 8-Aza-spiro[4,5]decane-8-carboxylic acid 6-{[1-(4-phenoxy-phenoxycarbonyl)-piperidine-4-oxycarbonyl]amino}-hexyl ester], for which, in test [1], the “ACAT % inhibition at 25 μM” value is reported as 83% and the IC50 worked out at 1720 nM. Also, in test [2] (setting [4]), the IC50 was 310 nM. Further, the inhibition in vivo at 10 mg/kg in test [3] (setting [6]) was 76%.

In the case of `CCCCCCCCCNC(=O)OCCCNC(=O)OC1CCN(C(=O)Oc2ccc(Oc3ccccc3)cc2)CC1` [Example 18, 4-[3-(Nonylcarbamoyloxy)-propylcarbamoyloxy]-piperidine-1-carboxylic acid 4-phenoxyphenyl ester], the IC50 in test [2] (setting [4]) worked out at 510 nM. The inhibition in vivo at 10 mg/kg in test [3] (setting [6]) stood at 50%.

With `O=C(NCCCCCCOC(=O)N1CCCCC1)OC1CCN(C(=O)Oc2ccc(Oc3ccccc3)cc2)CC1` [Example 8, 4-[6-(Piperidine-1-carbonyloxy)-hexylcarbamoyloxy]-piperidine-1-carboxylic acid 4-phenoxyphenyl ester], in test [1], the “ACAT % inhibition at 25 μM” value is recorded as 98% and the IC50 turned out to be 2340 nM. The concentration for half-maximal inhibition (IC50) in test [2] (setting [4]) amounted to 540 nM. In test [3] (setting [6]), the inhibition in vivo at 3 mg/kg was 65%.

As to `CCCCCCNC(=O)OCCCCCCNC(=O)OC1CCN(C(=O)Oc2ccc(Oc3ccccc3)cc2)CC1` [Example 6, 4-[6-(Hexylcarbamoyloxy)-hexylcarbamoyloxy]-piperidine-1-carboxylic acid 4-phenoxyphenyl ester], the “ACAT % inhibition at 25 μM” value in test [1] was determined as 97%. In addition, the values for the IC50 in test [1] and in test [2] (setting [4]) were 1780 nM and 420 nM, respectively. Further, in test [3] (setting [6]), the inhibition in vivo at 3 mg/kg was 59%.

As to `CCCCCCCN(Cc1ccc(CC(C)(C)C)cc1)C(=O)OCCCCCCNC(=O)OC1CCN(C(=O)Oc2ccc(Oc3ccccc3)cc2)CC1` [Example 11, 4-{6-[(4-(2,2-Dimethyl-propyl)-benzyl)-heptyl-carbamoyloxy]-hexyl-carbamoyloxy}-piperidine-1-carboxylic acid 4-phenoxyphenyl ester], the “ACAT % inhibition at 25 μM” value in test [1] worked out at 24%. Moreover, the IC50 in test [2] (setting [4]) is 28200 nM. The inhibition in vivo at 20 mg/kg in test [3] (setting [5]) is 6%.

As to `CCCCCCNC(=O)OCCCNC(=O)OC1CCN(C(=O)Oc2ccc(Oc3ccccc3)cc2)CC1` [Example 16, 4-[3-(Hexylcarbamoyloxy)-propylcarbamoyloxy]-piperidine-1-carboxylic acid 4-phenoxyphenyl ester], the IC50 in test [2] (setting [4]) was 730 nM. For the same compound, in test [3] (setting [6]), the inhibition in vivo at 10 mg/kg was 68%.
